Experimental data reported in the supplement of paper PMC11208160.

assay: recombinant barcode read abundance after kanamycin selection (control-corrected) (log10(CPM+1)); higher = more efficient recombination; sequences stand for … in AGTGCAGAGAAAATCGGCCAGTTTTCTCTGCCTGCAGTCCGCATGCCGT…AGATTTATGCAGCGGACTGCCTTTCTCCCAAAGTGATAAACCGGACAGTATCATGGACCGGTTTTCCCGGTAATCCGTATTTGCAAGGTTGGTTTCACT; site = the 11-nt target
Protocol: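 Pooled E. coli target-specificity screen for the IS621 bridge recombinase. Each library plasmid pairs an 11-nt target (CT core) with a bridge RNA whose target-binding loop (9-nt LTG + 4-nt RTG) is reprogrammed; the rest of the 177-nt WT IS621 bridge RNA scaffold is fixed. The plasmid is co-electroporated with a WT donor plasmid; recombinase is induced with 0.1 mM IPTG and recombinants are selected on kanamycin. Recombinant barcodes are sequenced, converted to CPM, averaged over two biological replicates and corrected by the unselected control CPM. Molecule = full bridge RNA written as DNA: LTG = specificity nt 1-9, RTG = reverse complement of specificity nt 8-11, in the WT scaffold.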
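Note: IS621 recombinase and bridge RNA in Escherichia coli cells.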

Sequence | recombinant barcode read abundance (log10)
AGAAATTCTTGGGTTCTAACCTGTTGCCT (site AGAAATTCTAG) | 0.52
AGAAATTCTTGGGTTCTAACCTGTTGCCT (site AGCAATTCTAG) | 0.0252
AGAAATTCTTGGGTTCTAACCTGTTGCCT (site AGGAATTCTAG) | 0.111
AGAAATTCTTGGGTTCTAACCTGTTGCCT (site AGTAATTCTAG) | 0.0316
AGAAGTCCTTGGGTTCTAACCTGTTGCTG (site AGAAGTCCTCA) | 1.11
AGAAGTCCTTGGGTTCTAACCTGTTGCTG (site AGAAGTCCTCC) | 0.0845
AGAAGTCCTTGGGTTCTAACCTGTTGCTG (site AGAAGTCCTCG) | 0.0922
AGAAGTCCTTGGGTTCTAACCTGTTGCTG (site AGAAGTCCTCT) | 0.773
AGAATCCCTTGGGTTCTAACCTGTTGCTA (site AGAATCCCTTA) | 1.74
AGAATCCCTTGGGTTCTAACCTGTTGCTA (site GCAATCCCTTA) | 0.106
AGACGTCCTTGGGTTCTAACCTGTTGCGT (site AGACGTCCTAC) | 2.51
AGACGTCCTTGGGTTCTAACCTGTTGCGT (site ATACGTCCTAT) | 0.233
AGACTAACTTGGGTTCTAACCTGTTGCTT (site AGACTAACTAA) | 0.715
AGACTAACTTGGGTTCTAACCTGTTGCTT (site GGACTAACTAG) | 0.0387
AGACTCTCTTGGGTTCTAACCTGTTGCCT (site AGACTCTCTAG) | 2.01
AGACTCTCTTGGGTTCTAACCTGTTGCCT (site ATACTCTCTAG) | 0.377
AGACTTCCTTGGGTTCTAACCTGTTGCTT (site AGACATCCTAA) | 0.158
AGACTTCCTTGGGTTCTAACCTGTTGCTT (site AGACCTCCTAA) | 0.121
AGACTTCCTTGGGTTCTAACCTGTTGCTT (site AGACGTCCTAA) | 0.0179
AGACTTCCTTGGGTTCTAACCTGTTGCTT (site AGACTTCCTAA) | 0.811
AGAGAGTCTTGGGTTCTAACCTGTTGCCT (site AGAAAGTCTAC) | 0.0903
AGAGAGTCTTGGGTTCTAACCTGTTGCCT (site AGAGAGTCTAG) | 2.53

Sequence | recombinant barcode read abundance (log10)
AGAGGGTCTTGGGTTCTAACCTGTTGCCT (site AAAGGGTCTAG) | 0.21
AGAGGGTCTTGGGTTCTAACCTGTTGCCT (site ACAGGGTCTAG) | 0.731
AGAGGGTCTTGGGTTCTAACCTGTTGCCT (site AGAGGGTCTAG) | 2.79
AGAGGGTCTTGGGTTCTAACCTGTTGCCT (site ATAGGGTCTAG) | 0.765
AGAGGTCCTTGGGTTCTAACCTGTTGCCT (site AGAGGTCCTAG) | 2.04
AGAGGTCCTTGGGTTCTAACCTGTTGCCT (site TGAGGGCCTAG) | 0.169
AGAGTGACTTGGGTTCTAACCTGTTGCCT (site AGAGAGACTAG) | 1
AGAGTGACTTGGGTTCTAACCTGTTGCCT (site AGAGCGACTAG) | 0.0794
AGAGTGACTTGGGTTCTAACCTGTTGCCT (site AGAGGGACTAG) | 0.0448
AGAGTGACTTGGGTTCTAACCTGTTGCCT (site AGAGTGACTAG) | 1.69
AGATTCACTTGGGTTCTAACCTGTTGCCT (site AGATTCACTAG) | 0.994
AGATTCACTTGGGTTCTAACCTGTTGCCT (site AGATTGACTTG) | 0.0824
AGATTCCCTTGGGTTCTAACCTGTTGCCG (site AGATTCCCTCG) | 1.67
AGATTCCCTTGGGTTCTAACCTGTTGCCG (site AGATTCGCTCG) | 0.0429
AGATTTCCTTGGGTTCTAACCTGTTGCAT (site AGATTTCCTAT) | 0.173
AGATTTCCTTGGGTTCTAACCTGTTGCAT (site CATCCGACTGA) | 0.0339
AGCAACACTTGGGTTCTAACCTGTTGCAG (site AGCAACACTCT) | 0.467
AGCAACACTTGGGTTCTAACCTGTTGCAG (site TCTCGTCCTTA) | 0.0984
AGCAATTCTTGGGTTCTAACCTGTTGCCT (site AGAAATTCTAG) | 0.144
AGCAATTCTTGGGTTCTAACCTGTTGCCT (site AGCAATTCTAG) | 0.165
AGCAATTCTTGGGTTCTAACCTGTTGCCT (site AGGAATTCTAG) | 0.132
AGCAATTCTTGGGTTCTAACCTGTTGCCT (site AGTAATTCTAG) | 0.277

Sequence | recombinant barcode read abundance (log10)
AGCAGCTCTTGGGTTCTAACCTGTTGCCT (site AGCAGCTCTAG) | 1.7
AGCAGCTCTTGGGTTCTAACCTGTTGCCT (site AGGAGCGCTAG) | 0.0136
AGCAGGACTTGGGTTCTAACCTGTTGCCG (site AGCACGACTCA) | 0.0667
AGCAGGACTTGGGTTCTAACCTGTTGCCG (site AGCAGGACTCG) | 1.17
AGCAGGGCTTGGGTTCTAACCTGTTGCAG (site AGCAGGGCTCT) | 2.14
AGCAGGGCTTGGGTTCTAACCTGTTGCAG (site AGTAGGACTCT) | 0.184
AGCAGGTCTTGGGTTCTAACCTGTTGCCT (site AACAGGTCTAG) | 0.109
AGCAGGTCTTGGGTTCTAACCTGTTGCCT (site ACCAGGTCTAG) | 0.234
AGCAGGTCTTGGGTTCTAACCTGTTGCCT (site AGCAGGTCTAG) | 1.09
AGCAGGTCTTGGGTTCTAACCTGTTGCCT (site ATCAGGTCTAG) | 0.0118
AGCAGTCCTTGGGTTCTAACCTGTTGCGT (site AGCAGTCCTAC) | 1.47
AGCAGTCCTTGGGTTCTAACCTGTTGCGT (site AGGAGTCCTAC) | 0.188
AGCAGTCCTTGGGTTCTAACCTGTTGCTG (site AGCAGTCCTCA) | 0.802
AGCAGTCCTTGGGTTCTAACCTGTTGCTG (site TCCAGTCCTCA) | 0.0256
AGCCACACTTGGGTTCTAACCTGTTGCCT (site AGCCACACTAG) | 0.933
AGCCACACTTGGGTTCTAACCTGTTGCCT (site AGCCACCCTAG) | 0
AGCCACACTTGGGTTCTAACCTGTTGCCT (site AGCCACGCTAG) | 0.374
AGCCACACTTGGGTTCTAACCTGTTGCCT (site AGCCACTCTAG) | 0.456
AGCCACACTTGGGTTCTAACCTGTTGCGT (site AGCCACACTAC) | 0.948
AGCCACACTTGGGTTCTAACCTGTTGCGT (site TGCCAGACTAC) | 0.183
AGCCCTCCTTGGGTTCTAACCTGTTGCTT (site AGCCCTCCTAA) | 0.518
AGCCCTCCTTGGGTTCTAACCTGTTGCTT (site AGCCCTCCTCA) | 0.667
